Laboratory results published in PubChem BioAssay AID1963866 (Molecular Pharmacology Branch, DTP, NCI, 2024).

Test system: PDC KRAS tumor spheroids with HUVEC/MSC, viability
Assay: Anticancer human tumor 349418-098-R-PDC patient-derived lung adenocarcinoma cell line growth inhibition [KRAS2]
Settings: for IC50: curve of first compound; for viability, T/C: stronger effect = lower value
Source text: Multicellular complex tumor spheroid response to RAS pathway inhibitors in combination with a targeted agents in patient-derived cell lines with oncogenic KRAS variants from multiple cancer types
A high-throughput screen of multi-cell type tumor spheroids was designed to identify active combinations of targeted small molecules and KRAS pathway inhibitors. Complex spheroids include a stromal component modeled by human endothelial cells (HUVEC) and fibroblasts modeled by human mesenchymal stem cells (MSCs). The concentration ranges selected for each drug and investigational agent were based upon clinically achievable concentrations if the clinical Cmax of the agent was known.
Compounds. The drugs and investigational agents: BI-3406 (NSC825286), BAY-293 (NSC824723), batoprotafib (TNO155; NSC825523), sotorasib (AMG 510; NSC818433), MRTX1257 (NSC819558), elimusertib (BAY 1895344; NSC800525), molibresib (GSK525762; NSC774829), temuterkib (LY3214996; NSC803410), venetoclax (NSC766270), alisertib (NSC759677), olaparib (NSC753686), talazoparib (NSC767125), erdafitinib (NSC781556), ipatasertib (NSC767898), cabozantinib (NSC761068), nintedanib (NSC756659), abemaciclib (NSC768073), docetaxel (NSC628503), trametinib (NSC758246), and sapanisertib (NSC764658) were obtained from the National Cancer Institute (NCI) Developmental Therapeutics Program Chemical Repository. The FDA-approved anticancer drug set is available from the Developmental Therapeutics Program. […] The stock solutions were prepared in dimethyl sulfoxide (DMSO, Sigma-Aldrich, St. Louis, MO, cat. D2650) at 800-fold the tested concentration and stored at -70 degrees C prior to their use. All drugs and investigational agents were tested over a range starting from a high concentration at or near the clinical Cmax and decreasing in half-log increments. If the clinical Cmax for an agent had not been determined, the highest concentration tested was 10 microM.
Cell Culture. All cells were maintained in an incubator at 37 degrees C and 5% CO2 with 95% humidity. The PDC lines were cultured according to standard operating procedures established by the NCI PDMR (https://pdmr.cancer.gov/sops/default.htm). Briefly, all PDCs were thawed and cultured in Matrigel-coated flasks prepared with a working solution of 1X Ham's F-12 nutrient mix, without supplementation (Invitrogen, Waltham, MA, cat. 11765054), 100 U/mL penicillin-streptomycin (Invitrogen, cat. 15140122), and 2.5% Matrigel (Corning Inc., Corning, NY, cat. 354248) for the first three passages. All PDCs were cultured in complete DMEM/F-12 media containing advanced DMEM/F-12 (Invitrogen, cat. 12634028), 4.9% defined fetal bovine serum, heat inactivated (HyClone Laboratories Inc., Logan, UT, cat. SH30070.03HI), 389 ng/mL hydrocortisone (Sigma-Aldrich, cat. H4001), 9.7 ng/mL human EGF recombinant protein (Invitrogen, cat. PHG0313), 23.4 microg/mL adenine (Sigma-Aldrich, cat. A2786), 97.3 U/mL penicillin-streptomycin (Invitrogen, cat. 15140122), 1.9 mM L-glutamine (Invitrogen, cat. 25030081), and 9.7 microM Y-27632 dihydrochloride (Tocris Bioscience, Bristol, United Kingdom, cat. 1254). The PDCs were cultured in complete DMEM/F12 media without 9.7 microM Y-27632 dihydrochloride for at least two passages prior to the screen. The established cell line HOP-62 was cultured in RPMI 1640 medium, HEPES (Invitrogen, cat. 22400105) with 10% defined fetal bovine serum (HyClone Laboratories Inc., cat. SH30070.03) and 2 mM L-glutamine (Invitrogen, cat. 25030081). The pooled donor HUVEC were cultured in endothelial cell growth medium 2 (PromoCell, Heidelberg, Germany, cat. C-22011) and the hMSC were cultured in mesenchymal stem cell growth medium 2 (PromoCell, cat. C-28009). For all experiments, HUVEC and hMSC were used at passages </=5, while the malignant cell lines were used at passages </=15. […]

[1] = second compound 0.1 µM, first compound 0.01 µM
[2] = second compound 0.1 µM, first compound 0.0316 µM
[3] = second compound 0.1 µM, first compound 0.1 µM
[4] = second compound 0.1 µM, first compound 0.316 µM
[5] = second compound 0.1 µM, first compound 1 µM
[6] = second compound 0.1 µM, first compound 3.16 µM
[7] = second compound 0.316 µM, first compound 0.01 µM
[8] = second compound 0.316 µM, first compound 0.0316 µM
[9] = second compound 0.316 µM, first compound 0.1 µM
[10] = second compound 0.316 µM, first compound 0.316 µM
[11] = second compound 0.316 µM, first compound 1 µM
[12] = second compound 0.316 µM, first compound 3.16 µM
[13] = second compound 1 µM, first compound 0.01 µM
[14] = second compound 1 µM, first compound 0.0316 µM
[15] = second compound 1 µM, first compound 0.1 µM
[16] = second compound 1 µM, first compound 0.316 µM
[17] = second compound 1 µM, first compound 1 µM
[18] = second compound 1 µM, first compound 3.16 µM
[19] = second compound 3.16 µM, first compound 0.01 µM
[20] = second compound 3.16 µM, first compound 0.0316 µM
[21] = second compound 3.16 µM, first compound 0.1 µM
[22] = second compound 3.16 µM, first compound 0.316 µM
[23] = second compound 3.16 µM, first compound 1 µM
[24] = second compound 3.16 µM, first compound 3.16 µM
[25] = second compound 10 µM, first compound 0.01 µM
[26] = second compound 10 µM, first compound 0.0316 µM
[27] = second compound 10 µM, first compound 0.1 µM
[28] = second compound 10 µM, first compound 0.316 µM
[29] = second compound 10 µM, first compound 1 µM
[30] = second compound 10 µM, first compound 3.16 µM
[31] = second compound 0.1 µM, first compound 10 µM
[32] = second compound 0.316 µM, first compound 10 µM
[33] = second compound 1 µM, first compound 10 µM
[34] = second compound 3.16 µM, first compound 10 µM
[35] = second compound 10 µM, first compound 10 µM
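Note: spheroids exposed to compounds for seven days before readout.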

SMILES | IC50 (second compound 0.1 µM) | IC50 (second compound 0.316 µM) | IC50 (second compound 1 µM) | IC50 (second compound 3.16 µM) | IC50 (second compound 10 µM) | viability, T/C [2] | viability, T/C [3] | viability, T/C [4] | viability, T/C [5] | viability, T/C [6] | viability, T/C [8] | viability, T/C [9] | viability, T/C [10] | viability, T/C [11] | viability, T/C [14] | viability, T/C [15] | viability, T/C [20] | viability, T/C [21] | viability, T/C [26] | viability, T/C [27] | also measured
CC(=O)OC12COC1CC(O)C1(C)C(=O)C(O)C3=C(C)C(OC(=O)C(O)C(NC(=O)OC(C)(C)C)c4ccccc4)CC(O)(C(OC(=O)c4ccccc4)C21)C3(C)C (stereo not given) + C=CC(=O)N1CCN(c2nc(=O)n(-c3c(C)ccnc3C(C)C)c3nc(-c4c(O)cccc4F)c(F)cc23)C(C)C1 | < 10 nM | < 10 nM | < 10 nM | < 10 nM | < 10 nM | 12.3% | 16% | 14.9% | 24% | 21.2% | 12.7% | 16.7% | 17.9% | 18% | 14.2% | 11.6% | 13.1% | 13.4% | 11% | 9.81% | viability, T/C [1]: 11.3%; viability, T/C [7]: 10.2%; viability, T/C [12]: 20.1%; viability, T/C [13]: 11.1%; viability, T/C [16]: 14.8%; viability, T/C [17]: 20.5%; viability, T/C [18]: 18.3%; viability, T/C [19]: 9.17%; viability, T/C [22]: 12.6%; viability, T/C [23]: 15.5%; viability, T/C [24]: 15.9%; viability, T/C [25]: 9.5%; viability, T/C [28]: 9.76%; viability, T/C [29]: 11.7%; viability, T/C [30]: 11.9%
CN(C)C/C=C/C(=O)Nc1cc2c(Nc3ccc(F)c(Cl)c3)ncnc2cc1O[C@H]1CCOC1 + C=CC(=O)N1CCN(c2nc(=O)n(-c3c(C)ccnc3C(C)C)c3nc(-c4c(O)cccc4F)c(F)cc23)C(C)C1 | > 100 nM | > 100 nM | > 100 nM | > 100 nM | < 0.316 nM | 99.1% | 94% |  |  |  | 100% | 87.5% |  |  | 80.5% | 78.2% | 55.2% | 64.9% | 27.5% | 32.6% | viability, T/C (second compound 0.1 µM, first compound 0.000316 µM): 104%; viability, T/C (second compound 0.1 µM, first compound 0.001 µM): 97.8%; viability, T/C (second compound 0.1 µM, first compound 0.00316 µM): 98.7%; viability, T/C [1]: 83.3%; viability, T/C (second compound 0.316 µM, first compound 0.000316 µM): 96.6%; viability, T/C (second compound 0.316 µM, first compound 0.001 µM): 106%; viability, T/C (second compound 0.316 µM, first compound 0.00316 µM): 95.1%; viability, T/C [7]: 91.7%; viability, T/C (second compound 1 µM, first compound 0.000316 µM): 90.6%; viability, T/C (second compound 1 µM, first compound 0.001 µM): 85.6%; viability, T/C (second compound 1 µM, first compound 0.00316 µM): 81%; viability, T/C [13]: 95.3%; viability, T/C (second compound 3.16 µM, first compound 0.000316 µM): 78%; viability, T/C (second compound 3.16 µM, first compound 0.001 µM): 68.4%; viability, T/C (second compound 3.16 µM, first compound 0.00316 µM): 83.8%; viability, T/C [19]: 59.5%; viability, T/C (second compound 10 µM, first compound 0.000316 µM): 40.9%; viability, T/C (second compound 10 µM, first compound 0.001 µM): 40.2%; viability, T/C (second compound 10 µM, first compound 0.00316 µM): 35.9%; viability, T/C [25]: 32.3%
COC(=O)c1ccc2c(C(=Nc3ccc(N(C)C(=O)CN4CCN(C)CC4)cc3)c3ccccc3)c(O)[nH]c2c1 + C=CC(=O)N1CCN(c2nc(=O)n(-c3c(C)ccnc3C(C)C)c3nc(-c4c(O)cccc4F)c(F)cc23)C(C)C1 | 157 nM | 226 nM | 242 nM | 106 nM | < 31.6 nM | 88.1% | 49.6% | 47.2% | 26.5% | 14.8% | 94.5% | 63.1% | 47.1% | 27.9% | 107% | 73.2% | 72.4% | 47.9% | 40% | 35.2% | viability, T/C [31]: 15.1%; viability, T/C [12]: 17.2%; viability, T/C [32]: 15.5%; viability, T/C [16]: 39.8%; viability, T/C [17]: 30.4%; viability, T/C [18]: 18.1%; viability, T/C [33]: 13.7%; viability, T/C [22]: 35.7%; viability, T/C [23]: 28.4%; viability, T/C [24]: 11.6%; viability, T/C [34]: 10.9%; viability, T/C [28]: 31.4%; viability, T/C [29]: 25.3%; viability, T/C [30]: 5.38%; viability, T/C [35]: 1.56%
O=C(c1cc(Cc2n[nH]c(=O)c3ccccc23)ccc1F)N1CCN(C(=O)C2CC2)CC1 + C=CC(=O)N1CCN(c2nc(=O)n(-c3c(C)ccnc3C(C)C)c3nc(-c4c(O)cccc4F)c(F)cc23)C(C)C1 | 95.8 nM | 350 nM | 1630 nM | 1310 nM | < 31.6 nM | 84.6% | 47.1% | 32.3% | 21.4% | 17.5% | 92.6% | 86.3% | 52.2% | 26.3% | 100% | 92.8% | 68.7% | 67.2% | 42% | 43.9% | viability, T/C [31]: 14.8%; viability, T/C [12]: 30%; viability, T/C [32]: 17.2%; viability, T/C [16]: 83.1%; viability, T/C [17]: 71.2%; viability, T/C [18]: 20.6%; viability, T/C [33]: 20.9%; viability, T/C [22]: 75.8%; viability, T/C [23]: 51.9%; viability, T/C [24]: 33.7%; viability, T/C [34]: 18.3%; viability, T/C [28]: 36.3%; viability, T/C [29]: 27%; viability, T/C [30]: 29.2%; viability, T/C [35]: 14%
